Reference: patent US12037346B2, “Amino-substituted heteroaryls for treating cancers with EGFR mutations” (Nuvalent, Inc., priority 2021, dated 2024)

Tests used:
Type in all cases: cell-based
[1] = system: A431 cells (amplification of the wild-type EGFR gene), phospho-ERK Thr202/Tyr204; experiment: Cellular phosphorylation assay, pERK (phospho-ERK Thr202/Tyr204 AlphaLISA) in A431; settings: Homo sapiens, A-431, compound incubated for 5 hours
Protocol: (§1) Besides Ba/F3s, two commercially available cell lines were also used. NCI-H1781 is a HER2 exon20 insertion cell line bearing HER2-A775_G776insV-G776C. A431 bears amplification of the wild-type EGFR gene.
(§2) Ba/F3 cells were plated at 50,000 cells/well (40 μL), or NCI-H1781 cells or A431 cells were plated at 12,500 cells/well (40 μL), in a 384-well plate for 1 day. Test compounds (40 nL) were then added in a 3-fold dilution series using the TECAN EV0200 liquid handler and incubated for 5 hours. Only for pEGFR analysis in A431, the cells were briefly stimulated with EGF (30 ng/mL) for 15 minutes. Media were removed using Apricot Designs. Phosphoproteins were analyzed using the phospho-EGFR Tyr1068 AlphaLISA kit (“pEGFR”; PerkinElmer #ALSU-PEGFR-B10K;) phospho-ERK Thr202/Tyr204 AlphaLISA kit (“pERK”; PerkinElmer #ALSU-PERK-A10K) or the phospho-ErbB2 Tyr1221/1222 AlphaLISA kit (“pHER2”; PerkinElmer #ALSU-PEB2-A10K;) according to the manufacturer's instructions. Briefly, cells were lysed with lysis buffer (10 μL) containing protease-inhibitor and phosphatase-inhibitor cocktails. The lysates were transferred into a new optical plate, incubated with the acceptor mix (5 μL) for 1.5-2 hours at room temperature in darkness, and then mixed with the donor mix (5 μL) overnight in darkness. Fluorescence was measured on a plate reader using the appropriate AlphaLISA settings. Half-maximal inhibitory concentration (IC50) was calculated from percent inhibition and inhibitor concentration using four-parameter logistic regression. […]

[2] = biological target: T1, wild-type EGFR (A431 cells) (Homo sapiens, UniProt P00533); experiment: Cellular phosphorylation assay, pEGFR (phospho-EGFR Tyr1068 AlphaLISA) in A431; settings: compound incubated for 5 hours, EGF (30 ng/mL) for 15 minutes
T1 construct: A431 bears amplification of the wild-type EGFR gene; endogenous in cells; host or cells: A431
T1 sequence (P00533 25-1210): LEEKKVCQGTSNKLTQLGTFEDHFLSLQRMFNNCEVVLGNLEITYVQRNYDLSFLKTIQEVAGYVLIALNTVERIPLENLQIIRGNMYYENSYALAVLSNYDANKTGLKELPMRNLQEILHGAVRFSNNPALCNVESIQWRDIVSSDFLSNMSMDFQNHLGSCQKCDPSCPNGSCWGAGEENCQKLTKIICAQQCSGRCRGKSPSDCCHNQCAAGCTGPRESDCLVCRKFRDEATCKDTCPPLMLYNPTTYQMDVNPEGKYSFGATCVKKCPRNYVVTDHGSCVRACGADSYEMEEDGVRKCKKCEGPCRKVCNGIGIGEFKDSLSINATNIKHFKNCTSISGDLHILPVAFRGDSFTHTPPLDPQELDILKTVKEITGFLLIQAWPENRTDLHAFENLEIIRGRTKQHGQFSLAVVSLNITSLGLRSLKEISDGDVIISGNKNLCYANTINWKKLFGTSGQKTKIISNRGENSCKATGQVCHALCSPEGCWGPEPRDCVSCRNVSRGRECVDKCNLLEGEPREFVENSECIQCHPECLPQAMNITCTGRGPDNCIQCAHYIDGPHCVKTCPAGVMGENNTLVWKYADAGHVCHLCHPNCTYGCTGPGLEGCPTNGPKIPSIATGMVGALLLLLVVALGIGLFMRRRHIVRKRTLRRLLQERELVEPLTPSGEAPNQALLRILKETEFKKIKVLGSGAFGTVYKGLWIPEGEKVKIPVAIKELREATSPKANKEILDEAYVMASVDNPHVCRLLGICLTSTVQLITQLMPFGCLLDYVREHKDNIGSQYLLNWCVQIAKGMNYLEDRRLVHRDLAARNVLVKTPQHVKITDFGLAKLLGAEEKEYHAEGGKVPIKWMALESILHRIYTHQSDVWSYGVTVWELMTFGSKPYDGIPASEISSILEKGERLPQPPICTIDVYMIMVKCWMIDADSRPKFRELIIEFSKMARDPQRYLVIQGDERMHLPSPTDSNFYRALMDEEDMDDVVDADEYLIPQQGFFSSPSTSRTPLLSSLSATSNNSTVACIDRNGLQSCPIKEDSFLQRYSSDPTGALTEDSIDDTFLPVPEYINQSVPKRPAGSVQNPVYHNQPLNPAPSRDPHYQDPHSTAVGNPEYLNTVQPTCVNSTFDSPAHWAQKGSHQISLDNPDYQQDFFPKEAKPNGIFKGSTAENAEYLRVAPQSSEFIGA
Protocol: as §1, §2

[3] = biological target: Ba/F3 HER2-YVMA cells (HER2-A775_G776insYVMA) (Homo sapiens, UniProt P04626, DUP772-775, cells depend on it); experiment: Cell proliferation assay (CellTiter-Glo), Ba/F3 HER2-YVMA; settings: read-out: Ba/F3 HER2-YVMA cell proliferation IC50
Ba/F3 HER2-YVMA cells (HER2-A775_G776insYVMA), sequence (P04626 with tags, fused parts or gaps DUP772-775): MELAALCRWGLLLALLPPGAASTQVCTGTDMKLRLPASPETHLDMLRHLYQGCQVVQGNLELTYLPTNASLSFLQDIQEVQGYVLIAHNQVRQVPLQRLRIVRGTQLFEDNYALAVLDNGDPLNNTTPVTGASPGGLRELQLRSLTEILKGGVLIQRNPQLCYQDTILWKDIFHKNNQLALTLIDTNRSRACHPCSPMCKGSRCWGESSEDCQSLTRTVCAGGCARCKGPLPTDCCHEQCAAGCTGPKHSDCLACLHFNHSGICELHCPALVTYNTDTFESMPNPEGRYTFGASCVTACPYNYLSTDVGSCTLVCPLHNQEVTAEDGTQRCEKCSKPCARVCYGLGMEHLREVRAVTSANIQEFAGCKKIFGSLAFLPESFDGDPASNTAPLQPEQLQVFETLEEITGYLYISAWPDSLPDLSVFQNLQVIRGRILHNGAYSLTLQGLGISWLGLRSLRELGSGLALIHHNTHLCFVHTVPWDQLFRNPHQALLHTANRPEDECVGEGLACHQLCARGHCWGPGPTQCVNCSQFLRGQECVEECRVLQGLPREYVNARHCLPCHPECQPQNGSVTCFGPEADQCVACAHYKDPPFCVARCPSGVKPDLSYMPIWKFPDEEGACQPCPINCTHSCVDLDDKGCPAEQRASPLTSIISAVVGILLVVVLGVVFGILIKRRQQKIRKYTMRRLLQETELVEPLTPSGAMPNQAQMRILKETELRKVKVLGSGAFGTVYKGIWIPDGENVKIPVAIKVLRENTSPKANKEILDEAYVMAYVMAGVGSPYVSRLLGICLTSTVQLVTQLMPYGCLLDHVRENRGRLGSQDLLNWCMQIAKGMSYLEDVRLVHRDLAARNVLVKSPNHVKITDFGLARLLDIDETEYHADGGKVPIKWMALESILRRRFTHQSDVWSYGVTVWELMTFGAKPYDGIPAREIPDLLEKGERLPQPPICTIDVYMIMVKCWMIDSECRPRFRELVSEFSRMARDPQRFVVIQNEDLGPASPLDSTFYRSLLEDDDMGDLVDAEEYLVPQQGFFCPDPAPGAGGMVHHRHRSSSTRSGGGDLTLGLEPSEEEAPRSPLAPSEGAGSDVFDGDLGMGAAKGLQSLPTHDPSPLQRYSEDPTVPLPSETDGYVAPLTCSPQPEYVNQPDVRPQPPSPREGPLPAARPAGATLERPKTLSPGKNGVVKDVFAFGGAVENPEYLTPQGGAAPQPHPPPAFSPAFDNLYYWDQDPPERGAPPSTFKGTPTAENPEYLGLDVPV
Protocol: The gene encoding HER2-A775_G776insYVMA (“HER2-YVMA”) was synthesized at GeneRay, cloned into the retroviral construct pMSCV-puro (Biovector), and packaged into retroviral particles. The virus was used to infect Ba/F3 cells (RIKEN) at multiplicity of infection=1 or 10 for 1 day. Infected cells were rescued in media (RPMI-1640 with 10% fetal bovine serum and 1% streptomycin and penicillin) supplemented with mouse IL-3 (10 ng/mL) for 2 days, and stable cell lines were selected by IL-3 withdrawal and puromycin (0.8 μg/mL) for 7 days. Monoclones were selected by single-cell dilution in IL-3-free medium containing puromycin ([…]). Transformation of desired genes was confirmed by Sanger sequencing and western blot using the following antibody: HER2 (CST #2242).
(§3) Ba/F3 cells were plated at 1,000 cells/well (40 μL), or NCI-H1781 or A431 cells were plated at 2,000 cells/well (40 μL), in a 384-well plate for 1 day. Test compounds (40 nL) were then added in a 3-fold dilution series using the TECAN EV0200 liquid handler and incubated for 48 hours (“2 days”), 72 hours (“3 days”), or 48 hours followed by renewal of compound solutions and further incubation for 72 hours (“2 days/3 days”). The 72-hour assay was necessary for NCI-H1781 cells, which are slow-growing, and the resupply of fresh compounds on day 3 obviated the potential confounding effects arising from compound degradation in cell media over 72 hours. Plates were equilibrated at room temperature for 15 minutes followed by addition of 40 μL CellTiter-Glo reagent (Promega). Luminescence was measured on a plate reader. Half-maximal inhibitory concentration (IC50) was calculated from percent inhibition and inhibitor concentration using four-parameter logistic regression. […] In these cases, the regression curve was drawn only for the first inflexion to accurately measure on-target growth inhibitory effect.
(§4) Ba/F3, NCI-H1781, and A431 proliferation is driven by the oncogenes in the same way that cancer cell proliferation in humans is driven by the expression of equivalent oncogenes.

[4] = system: NCI-H1781 cells (HER2-A775_G776insV-G776C); experiment: Cell proliferation assay (CellTiter-Glo), NCI-H1781; settings: first inflexion of biphasic curve
Protocol: as §1, §3, §4

| SMILES | IC50 [1] | IC50 [2] | GI50 [3] | IC50 [4] |
| --- | --- | --- | --- | --- |
| C=C(F)C(=O)N1CC=C(c2ccc3ncnc(Nc4ccc(Oc5ccn6ncnc6c5)c(C)c4)c3n2)CC1 [Example 31] | ≥ 1000 nM | ≥ 1000 nM | ≥ 1000 nM | ≥ 1000 nM |
| C=CC(=O)N1CCN(c2ncc3ncnc(Nc4cc(C)c(Oc5ccn6ncnc6c5)cc4F)c3n2)[C@H](C)C1 [Example 34] |  | ≥ 1000 nM | 100 to 500 nM | 100 to 500 nM |
| C=CC(=O)N1CCN(c2ncc3ncnc(Nc4cc(C)c(Oc5ccn6ncnc6c5)cc4F)c3n2)C[C@@H]1C [Example 36] | ≥ 1000 nM | ≥ 1000 nM | 100 to 500 nM | 100 to 500 nM |
| C=CC(=O)N1CC=C(c2ncc3ncnc(Nc4cc(C)c(Oc5ccn6ncnc6c5)cc4F)c3n2)CC1 [Example 38] |  | ≥ 1000 nM | 100 to 500 nM | 100 to 500 nM |
| C=CC(=O)N1CCN(c2ncc3ncnc(Nc4ccc(Oc5ccn6ncnc6c5)c(C(F)(F)F)c4F)c3n2)C[C@H]1C [Example 39] | ≥ 1000 nM | ≥ 1000 nM | 100 to 500 nM | 500 to 1000 nM |
| C=CC(=O)N1CC=C(c2ncc3ncnc(Nc4ccc(Oc5ccn6ncnc6c5)c(C)c4F)c3n2)C[C@@H]1C [Example 42] |  | ≥ 1000 nM | < 100 nM | < 100 nM |
| C=CC(=O)N1CCN(c2ncc3ncnc(Nc4ccc(Oc5ccn6ncnc6c5)c(C)c4F)c3n2)[C@@H](C)C1 [Example 43] | 100 to 500 nM | 100 to 500 nM | < 100 nM | < 100 nM |
| C=CC(=O)N1C[C@@H](C)N(c2ncc3ncnc(Nc4ccc(Oc5ccn6ncnc6c5)c(C)c4F)c3n2)C[C@H]1C [Example 44] |  | ≥ 1000 nM | 100 to 500 nM | 100 to 500 nM |
| C=CC(=O)N1C[C@H]2CC[C@@H]1CN2c1ncc2ncnc(Nc3ccc(Oc4ccn5ncnc5c4)c(C)c3F)c2n1 [Example 45] | ≥ 1000 nM | ≥ 1000 nM | < 100 nM | 100 to 500 nM |
| C=CC(=O)N1CC=C(c2ncc3ncnc(Nc4ccc(Oc5ccn6ncnc6c5)c(C)c4)c3n2)C[C@@H]1C [Example 95] | ≥ 1000 nM | ≥ 1000 nM | < 100 nM |  |
| C=CC(=O)N1CCC(c2ncc3ncnc(Nc4ccc(Oc5cc(C)n6ncnc6c5)c(C)c4F)c3n2)=C[C@@H]1C [Example 96] | ≥ 1000 nM | ≥ 1000 nM | 100 to 500 nM |  |
| C=CC(=O)N1CCN(c2ncc3ncnc(Nc4ccc(Oc5ccn6ncnc6c5)c(C)c4F)c3n2)[C@H](C)[C@H]1C [Example 100] | 100 to 500 nM | ≥ 1000 nM | < 100 nM |  |

Second part, the compound after the results:

| IC50 [1] | IC50 [2] | GI50 [3] | IC50 [4] | SMILES |
| --- | --- | --- | --- | --- |
| < 100 nM | < 100 nM | < 100 nM | < 100 nM | C=CC(=O)N1CCN(c2ncc3ncnc(Nc4ccc(Oc5ccn6ncnc6c5)c(C)c4F)c3n2)[C@H](C)[C@@H]1C (relative stereo) [Example 40] |
| 100 to 500 nM | 100 to 500 nM | < 100 nM | < 100 nM | C=CC(=O)N1CCN(c2ccc3ncnc(Nc4ccc(Oc5ccn6ncnc6c5)c(C)c4)c3n2)C[C@H]1C [Example 6] |
| 100 to 500 nM | 100 to 500 nM | < 100 nM | < 100 nM | Cc1cc(Nc2ncnc3ccc(N4CCN(C(=O)/C=C/CN(C)C)CC4)nc23)ccc1Oc1ccn2ncnc2c1 [Example 7] |
| ≥ 1000 nM | ≥ 1000 nM | < 100 nM | < 100 nM | C=CC(=O)N1CCN(c2ccc3ncnc(Nc4ccc(Oc5ccn6ncnc6c5)c(C)c4)c3n2)C(=O)C1 [Example 8] |
|  | ≥ 1000 nM | < 100 nM | 100 to 500 nM | C=CC(=O)N1CC=C(c2ccc3ncnc(Nc4cc(C)c(Oc5ccn6ncnc6c5)cc4F)c3n2)CC1 [Example 11] |
| ≥ 1000 nM | ≥ 1000 nM | < 100 nM | 100 to 500 nM | C=CC(=O)N1CC=C(c2ccc3ncnc(Nc4ccc(Oc5cc(OC)n6ncnc6c5)c(C)c4)c3n2)CC1 [Example 15] |
| 500 to 1000 nM | 500 to 1000 nM | < 100 nM | 100 to 500 nM | C=CC(=O)N1CC=C(c2ccc3ncnc(Nc4ccc(Oc5cc(Cl)n6ncnc6c5)c(C)c4)c3n2)CC1 [Example 16] |
| ≥ 1000 nM | ≥ 1000 nM | < 100 nM | < 100 nM | C=CC(=O)N1CC=C(c2ccc3ncnc(Nc4ccc(Oc5cc(C)n6ncnc6c5)c(C)c4)c3n2)CC1 [Example 17] |
| ≥ 1000 nM | ≥ 1000 nM | < 100 nM | < 100 nM | C=CC(=O)N1CCN(c2ccc3ncnc(Nc4ccc(Oc5ccn6ncnc6c5)c(C)c4)c3c2OC)CC1 [Example 20] |
| 500 to 1000 nM | ≥ 1000 nM | < 100 nM | < 100 nM | C=CC(=O)N1CCN(c2ccc3ncnc(Nc4ccc(Oc5ccn6ncnc6c5)c(C)c4)c3n2)[C@@H](C)C1 [Example 22] |
|  | ≥ 1000 nM | < 100 nM | < 100 nM | C=CC(=O)N1CCN(c2ccc3ncnc(Nc4ccc(Oc5ccn6ncnc6c5)c(C)c4)c3c2F)CC1 [Example 29] |
| 500 to 1000 nM |  | < 100 nM | < 100 nM | C=CC(=O)N1CCN(c2ncc3ncnc(Nc4ccc(Oc5ccn6ncnc6c5)c(C)c4F)c3n2)C[C@H]1C [Example 32] |
| ≥ 1000 nM | ≥ 1000 nM | < 100 nM | 100 to 500 nM | C=CC(=O)N1CCN(c2ncc3ncnc(Nc4cc(C)c(Oc5ccn6ncnc6c5)cc4F)c3n2)[C@@H](C)C1 [Example 35] |
| ≥ 1000 nM | 500 to 1000 nM | < 100 nM | < 100 nM | C=CC(=O)N1CC=C(c2ncc3ncnc(Nc4ccc(Oc5ccn6ncnc6c5)c(C)c4F)c3n2)CC1 [Example 37] |
| < 100 nM | < 100 nM | < 100 nM | < 100 nM | C=CC(=O)N1C[C@@H]2CC[C@H]1CN2c1ncc2ncnc(Nc3ccc(Oc4ccn5ncnc5c4)c(C)c3F)c2n1 [Example 41] |
